Measurements published in patent US20260158149A1, “GLYCOSYLATED PRODRUGS” (UNIVERSITEIT LEIDEN, priority 2021, published 2026).

Legend:
[1] = Whole-body glucose measurement in larvae
Description: Zebrafish embryos at 2 hpf received a chemical treatment, as indicated, with daily refreshment of the solutions, until 5 dpf. At 5 dpf, the larvae were collected in an Eppendorf tube and 100 μL of ice-cold glucose buffer was added to each sample. The larvae were homogenized using a BulletBlender® for 3 min at 8,000 rpm. The homogenates were then centrifuged at 4° C. for 8 min at 11000 rpm and the supernatant was stored at −20° C. Whole-body glucose concentrations were determined using a Glucose Colorimetric Assay kit (Cayman Chemical, USA), according to the manufacturer's instructions. In each experiment, three biological replicates were used for each treatment group, and the colorimetric assay was performed using technical duplicates.

regenerated tail fin = experiment: Regeneration of the tail fin after wounding; type: in vivo, Zebrafish (Danio rerio); conditions: 5 dpf larvae, wounded at 2 dpf
Description: When the regeneration of the tail fins after wounding or the larval body length was used as a readout, chemical treatments of the embryos were started at 2 hours post fertilization (hpf) and continued until 5 dpf. During this period, solutions were refreshed daily. At 5 dpf, larvae were imaged using a LeicaMZ16FA fluorescence stereomicroscope supported by LAS 3.7 software, and the length of the larvae was measured using ImageJ software (15 larvae per treatment group). For the regeneration experiments, tail fins were amputated at 2 dpf and larvae were imaged at 5 dpf (15 larvae per treatment group). The newly grown tissue can be distinguished from the old tissue, enabling precise measurement of the size of the newly grown tissue using ImageJ software.

[2] = Whole-body cortisol measurement using ELISA
Description: Zebrafish embryos at 2 hpf received a chemical treatment, as indicated, with daily refreshment of the solutions, until 96 hpf. Then, the treatments were stopped and embryos were incubated in egg water until 5 dpf to avoid cross-reactivity with the compounds of the cortisol antibody used in the ELISA. Then, the treatments were stopped and replaced with egg water. At 5 dpf, the larvae were collected in an Eppendorf tube and 100 μL of ice-cold phosphate-buffered saline (PBS) was added. The larvae were homogenized using a BulletBlender® for 3 min at 8,000 rpm. Ethyl acetate was added to the homogenate and the supernatant was gathered and vaporized. A volume of 150 μl of 0.2% Bovine serum albumin (Sigma Aldrich) dissolved in phosphate-buffered saline (PBS) was added to the samples and frozen. Whole-body cortisol of the zebrafish larvae was determined by ELISA (Demeditec Diagnostics GmbH, Kiel-Wellsee, Germany), following the manufacturer's instructions. In each experiment, three biological replicates were used for each treatment group, and the colorimetric assay was performed using technical duplicates.

human GR = biological target: T1, human GR (Homo sapiens, UniProt P04150); experiment: PolarScreen Glucocorticoid Receptor Competitor Assay
T1 sequence (P04150 1-777): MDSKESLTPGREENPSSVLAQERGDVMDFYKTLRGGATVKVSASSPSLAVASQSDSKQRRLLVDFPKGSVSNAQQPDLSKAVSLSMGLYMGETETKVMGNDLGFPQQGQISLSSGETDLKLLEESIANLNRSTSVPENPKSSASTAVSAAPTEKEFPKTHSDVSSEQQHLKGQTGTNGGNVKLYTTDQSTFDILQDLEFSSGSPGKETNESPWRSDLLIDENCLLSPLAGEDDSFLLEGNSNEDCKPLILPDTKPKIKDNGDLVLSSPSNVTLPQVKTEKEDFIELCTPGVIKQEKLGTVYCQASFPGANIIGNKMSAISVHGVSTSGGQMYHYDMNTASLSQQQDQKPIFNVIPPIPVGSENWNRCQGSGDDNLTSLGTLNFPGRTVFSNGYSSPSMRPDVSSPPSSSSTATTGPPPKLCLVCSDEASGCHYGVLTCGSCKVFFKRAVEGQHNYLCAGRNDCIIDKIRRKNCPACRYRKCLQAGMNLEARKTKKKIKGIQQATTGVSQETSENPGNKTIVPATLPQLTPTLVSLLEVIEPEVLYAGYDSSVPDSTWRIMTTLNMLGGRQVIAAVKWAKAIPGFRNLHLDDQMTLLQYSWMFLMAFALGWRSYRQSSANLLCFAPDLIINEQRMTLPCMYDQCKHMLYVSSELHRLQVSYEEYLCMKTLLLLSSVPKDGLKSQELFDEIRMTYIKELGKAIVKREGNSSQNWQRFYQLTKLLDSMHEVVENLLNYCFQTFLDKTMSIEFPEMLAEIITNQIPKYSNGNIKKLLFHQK

IL-6 = experiment: CAIA model: serum IL-6 by ELISA; type: in vivo, mouse
Description: All mice received 1.5 mg of a CAIA-cocktail (Chondrex) intravenously on day 1, followed by intraperitoneal (i.p.) injection of 50 μg LPS (Chondrex) on day 4. Mice were randomly divided into six groups. […] Scores were assigned blinded. […] The blood collection on day 14 was performed after 6 h fasting. On day 15, mice were sacrificed using carbon dioxide, and tissue samples were collected that were immediately frozen in liquid nitrogen. Applied humane endpoints were a total body weight loss of >20% in comparison to the day of LPS treatment or reaching an arthritis score of 45.
IL-6 concentrations were determined by ELISA in the serum collected at days 10 and 15, using the IL-6 mouse ELISA kit (Invitrogen), following the manufacturer's protocol. The insulin concentration was determined in serum collected at day 14, using the Ultra-sensitive mouse insulin ELISA kit (Crystal Chem), following the manufacturer's protocol. Corticosterone concentrations were determined in serum collected at day 15, using the Corticosterone HS (high sensitivity) enzyme immunoassay kit (Immunodiagnostic Systems), following the manufacturer's protocol. Expression levels of various GR target genes were determined by qPCR in the tissue samples (homogenized in TRIzol Reagent (ThermoFisher)) collected at day 15.

[3] = 5 dpf larvae treated from 2 hpf, non-wounded

C[C@]12C=CC(=O)C=C1CC[C@@H]1[C@@H]2[C@@H](O)C[C@@]2(C)[C@H]1CC[C@]2(O)C(=O)CO[C@@H]1O[C@H](CO[C@@H]2O[C@H](CO)[C@@H](O)[C@H](O)[C@H]2O)[C@@H](O)[C@H](O)[C@H]1O [GbPdn, 21-O-Gentobiose-Prednisolone]
whole body glucose level [1, 3]: did not affect the glucose or cortisol concentration
whole body glucose level under wounding conditions ([1]; 5 dpf larvae, wounded at 2 dpf): increase in glucose levels
tissue regeneration (length of regenerated tail fin) (regenerated tail fin): small effect
tissue regeneration with MZ31 (regenerated tail fin; GBA2 inhibitor MZ31): dependent on Gba2 activity
whole body cortisol level [2, 3]: did not affect the glucose or cortisol concentration
whole body cortisol level under wounding conditions ([2]; 5 dpf larvae, wounded at 2 dpf): decrease in cortisol concentration
decrease in the binding affinity relative to Pdn (human GR): ~1400 fold
serum IL-6 level compared to other treated groups (IL-6; day 10, 12.5 mg/kg): slightly higher IL-6 concentration compared to the other groups
serum IL-6 level compared to the vehicle group (IL-6; day 10, all treatment groups): significant reduction of the IL-6 level
serum IL-6 level (IL-6; day 15, 12.5 mg/kg): a very low level was detected in two (out of four) mice
serum IL-6 level (IL-6; day 15, all groups except 12.5 mg/kg GbPdn): undetectable
